# Assay results reported in paper PMC10520499, “Next step in the development of mesoprogestins: the preclinical profile of EC313” (Frontiers in Endocrinology, 2023).
# Tests used:
# T47D cells = assay: Proliferation / arrest in Go/G1 in T47D cells; format: cell-based, human; parameters: key to Arrest in Go/G1: ↓/↑ - decreased/increased action of tested compounds.; ↓/↑ - decreased/increased action of tested compounds
# [1] = target: T1, human estrogen receptor β (Homo sapiens, UniProt Q92731); assay: Competitive binding, human estrogen receptor β; conditions: ERβ, full length
# T1 construct: coding for the full length human estrogen receptors α and β, respectively, were obtained from GenScript; made in house; host or cells: HI (Hi5) insect cells, baculovirus; cellular lysate
# Description: The study aimed to characterize the competitive binding profile of EC313 to relevant human nuclear receptors. For the assays, commercially available ‘ligand binding domain’ proteins were purchased (Thermo Fisher Scientific). In addition, the full-length receptor proteins were expressed in transfected HI insect cells using the `Bac-to-bac Baculovirus expression system´ (Thermo Fisher Scientific). Cellular lysates served as receptor preparation. Receptor protein preparations were incubated with tritiated reference ligands and EC313 or reference steroids at concentrations between 0.1 and 1000 nM for 2h at 4°C to reach equilibrium. Subsequently, unbound steroids were adsorbed to dextran-coated charcoal (Sigma Aldrich), separated by filtration, and the remaining radioactivity was quantified in a ß-counter (Perkin Elmer). Displacement curves were fitted using the GraphPad Prism 7 free version to obtain EC50 values. Relative binding affinity (RBA [%], (C50ref/C50test)*100) and the competition coefficient (C50test/C50ref) were used to describe the relative binding potency of EC313 compared to the reference ligands.
# There are two subtypes of estrogen receptors (ER), ERα and ERβ, coded in different genes. Plasmids pFastBac1-ERa and pFastBac1-ERb, coding for the full length human estrogen receptors α and β, respectively, were obtained from GenScript. […]
# T1 sequence (Q92731 whole entry): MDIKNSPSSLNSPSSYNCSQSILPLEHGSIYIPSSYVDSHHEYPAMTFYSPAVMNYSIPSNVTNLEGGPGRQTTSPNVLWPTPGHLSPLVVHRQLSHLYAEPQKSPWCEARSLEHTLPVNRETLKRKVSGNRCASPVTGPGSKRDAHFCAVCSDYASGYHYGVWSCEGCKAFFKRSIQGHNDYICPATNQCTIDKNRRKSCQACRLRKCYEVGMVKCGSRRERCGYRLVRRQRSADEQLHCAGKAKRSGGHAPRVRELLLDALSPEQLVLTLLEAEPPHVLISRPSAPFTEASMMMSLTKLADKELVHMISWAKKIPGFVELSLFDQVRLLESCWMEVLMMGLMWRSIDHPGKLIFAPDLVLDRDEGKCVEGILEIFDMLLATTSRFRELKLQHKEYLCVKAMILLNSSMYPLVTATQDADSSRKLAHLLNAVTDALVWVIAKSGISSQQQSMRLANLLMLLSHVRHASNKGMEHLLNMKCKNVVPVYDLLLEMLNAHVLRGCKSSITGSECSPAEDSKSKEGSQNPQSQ
smiles,measurement,setting,value
C[C@]12C[C@H](c3ccc(-c4ccoc4)cc3)C3=C4CCC(=O)C=C4CC[C@H]3[C@@H]1CC[C@]21OCCC1=C(F)F [EC313],estradiol-induced proliferation of T47D,T47D cells,counteracts the estradiol-induced proliferation of T47D
same,Arrest in Go/G1,"T47D cells; Proliferation, T47D cells, statistical significance not always reached",↑
same,competitive displacement of [3H]-estradiol,[1],did not cause any competitive displacement
